Several values for one entry are separate records, joined by “and”; a condition that tells them apart may be missing. Equal entries are not always repeated.
Assays:
[1] = molecular target: T1, hOATP1B3 (Homo sapiens, UniProt Q9NPD5); assay: Nilotinib uptake in HEK293 cells overexpressing hOATP1B3; format: in vitro ADME; conditions: HEK293 cells overexpressing hOATP1B3 vs vector control
T1 sequence (Q9NPD5 1-702): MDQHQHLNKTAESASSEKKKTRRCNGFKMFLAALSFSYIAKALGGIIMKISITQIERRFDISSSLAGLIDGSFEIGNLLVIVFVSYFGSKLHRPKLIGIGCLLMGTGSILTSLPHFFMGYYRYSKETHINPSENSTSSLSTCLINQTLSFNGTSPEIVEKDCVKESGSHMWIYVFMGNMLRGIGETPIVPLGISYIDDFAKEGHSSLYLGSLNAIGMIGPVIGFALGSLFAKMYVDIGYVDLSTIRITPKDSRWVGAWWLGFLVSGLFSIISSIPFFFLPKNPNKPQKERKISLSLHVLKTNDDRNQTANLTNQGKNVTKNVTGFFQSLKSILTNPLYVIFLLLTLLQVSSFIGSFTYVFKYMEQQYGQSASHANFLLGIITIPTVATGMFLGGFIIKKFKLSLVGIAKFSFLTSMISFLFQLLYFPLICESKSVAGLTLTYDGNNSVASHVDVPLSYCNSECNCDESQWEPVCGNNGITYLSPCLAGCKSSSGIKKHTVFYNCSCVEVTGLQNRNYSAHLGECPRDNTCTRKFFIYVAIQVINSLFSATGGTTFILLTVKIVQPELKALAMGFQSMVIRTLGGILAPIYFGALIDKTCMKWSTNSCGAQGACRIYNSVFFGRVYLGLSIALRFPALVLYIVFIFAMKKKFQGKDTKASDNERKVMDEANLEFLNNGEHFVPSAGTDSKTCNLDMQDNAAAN

[2] = system: mice; conditions: 100 mg/kg orally 30 minutes before each of 4 vincristine doses of 1 mg/kg
[3] = system: DRG neurons; assay: DRG morphology and morphometry (neuron cell area); format: in vivo, mouse
[4] = molecular target: T2, LYN kinase (Mus musculus, UniProt P25911); assay: Phosphorylation of LYN kinase in DRG of mice (phospho-LYN/total LYN); format: in vivo
T2 construct: from tissue
T2 sequence (P25911 whole entry): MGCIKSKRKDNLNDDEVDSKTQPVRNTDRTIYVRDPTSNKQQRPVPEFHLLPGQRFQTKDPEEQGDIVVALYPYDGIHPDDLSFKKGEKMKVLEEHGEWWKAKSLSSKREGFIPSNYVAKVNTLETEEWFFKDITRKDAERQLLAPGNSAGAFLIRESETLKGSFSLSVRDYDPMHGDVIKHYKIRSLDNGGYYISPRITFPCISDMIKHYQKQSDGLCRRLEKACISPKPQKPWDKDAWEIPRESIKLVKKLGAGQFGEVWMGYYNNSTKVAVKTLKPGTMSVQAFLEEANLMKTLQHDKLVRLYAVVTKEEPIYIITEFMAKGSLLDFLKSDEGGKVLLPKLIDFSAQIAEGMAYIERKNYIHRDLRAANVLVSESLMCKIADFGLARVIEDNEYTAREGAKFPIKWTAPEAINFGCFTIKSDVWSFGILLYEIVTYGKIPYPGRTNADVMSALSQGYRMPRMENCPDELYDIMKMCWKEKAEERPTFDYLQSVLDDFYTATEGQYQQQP
Protocol: mg/kg; p.o.) wild-type mice, using specific antibodies for phospho-LYN and total LYN (n = 3 per group).
(C) Mechanical allodynia in wild-type mice and LYN-deficient [LYN(-/-)] mice 24 h after a single dose of
Data presented represent the mean (bars) ± SEM (error
bars), and paw sensitivity is expressed as a percentage over baseline values. Statistical analysis was […]

[5] = system: L1210; conditions: vincristine 1 μM, 30 min, nilotinib 10 μM
From the text: (A) Gene expression of the OATP1B2 gene in L1210 and P388D1 murine leukemia cells
normalized to total protein levels. All data presented represent the mean (bars) ± SEM (error bars).

[6] = system: OATP1B-type transporters; conditions: read-out: IC50, inhibition of OATP1B-mediated transport; cited from earlier work
[7] = system: mice; assay: Thermal hyperalgesia, Hargreaves test (paw withdrawal latency); conditions: nilotinib 100 mg/kg p.o. 30 min before each vincristine 1 mg/kg, 4 weeks
[8] = Vincristine accumulation in DRG and liver (tissue to plasma AUC ratio); conditions: nilotinib 100 mg/kg; vincristine 1 mg/kg
Protocol: injection at a dose of 1 mg/kg. Whole blood samples were collected 0.08, 0.25, 0.5, 1, and 4 h, and livers were collected at the final time point.
specimens were stored at -80°C until further processing.
stainless steel bead (Qiagen) and processed for 4 min at 40 Hz. Finally, the beads were removed, and the homogenized samples were stored at -80°C until analysis by LC-MS/MS.
Pharmacokinetic parameters were calculated by non -compartmental analysis using Phoenix WinNonlin version 8.0 (Certara). Peak plasma concentration (C max) was determined by visual inspection of the data from the concentration-time curves. The linear trapezoidal rule was used to obtain the area under the plasma concentration-time curve (AUC), and drug levels in tissues were corrected for
Quantiva triple quadrupole mass spectrometer from Thermo Fisher Scientific was used for LC-MS/MS
analysis. An Accucore aQ column (150 × 2.1 mm, dp = 2.6 μm, Thermo Fisher Scientific) was protected
volume was 5.0 μL. The temperature of the autosampler rack was 4°C, and the temperature of the
column was maintained at 50°C. Mobile phase A consisted of water with 0.1% (v/v) formic acid and
mobile phase B consisted of acetonitrile: methanol (1:1) with 0.1% (v/v) formic acid. The total run time […]
Precursor molecular ions and product ions were recorded for confirmation and
quantification was 5 ng/mL. […]

[9] = system: mice; assay: Nerve conduction studies (sciatic/digital and caudal nerve action potential amplitude and conduction velocity)
[10] = OATP1B2(-/-) mice + Nilotinib, Baseline
[11] = OATP1B2(-/-) mice + Nilotinib, Week 4
[12] = Wild-type mice + Nilotinib, Baseline
[13] = Wild-type mice + Nilotinib, Week 4

With `Cc1cn(-c2cc(NC(=O)c3ccc(C)c(Nc4nccc(-c5cccnc5)n4)c3)cc(C(F)(F)F)c2)cn1` [Nilotinib, nilotinib] the “Nilotinib uptake (% of control)” value [1] was 123.521 % of control and 118.661 % of control and 108.968 % of control, the “Protection against vincristine-associated changes in mechanical allodynia, thermal hyperalgesia and sciatic nerve maximal AMP” value [2] was “effectively protected against treatment-associated changes” and the “Cell area changes (%Δ from baseline)” value ([3]; OATP1B2(-/-) mice + Nilotinib) was 0.695% and -1.012% and -0.86%. The “Cell area changes (%Δ from baseline)” value ([3]; Wild-type mice + Nilotinib) was 0.351% and -0.994% and -0.034%, the “Prevention of vincristine-induced reduction in cell size of DRG neurons” value ([3]; nilotinib 100 mg/kg p.o. pretreatment) was “could be prevented by pretreatment with nilotinib” and the “DRG Phosho-LYN/Total LYN (% of Untreated)” value ([4]; DRG of mice) was 47.9691 % of Untreated and 52.4315 % of Untreated and 37.2669 % of Untreated. For the same molecule, the “Phosphorylated-LYN in DRG neurons” value ([4]; nilotinib 100 mg/kg p.o., wild-type mice) was “significant inhibition of phosphorylated-LYN in DRG neurons”, the “Influence on uptake of vincristine” value [5] was “did not influence the uptake of vincristine” and the IC50 [6] was roughly 1000 nM. The “Paw withdrawal latency (%Δ from baseline)” value ([7]; KO (OATP1B2-/-) mice) was 81.1 %Δ from baseline and 88.2 %Δ from baseline and 119.5 %Δ from baseline and 100.4 %Δ from baseline and 93.8 %Δ from baseline and 69.5 %Δ from baseline, the “Paw withdrawal latency (%Δ from baseline)” value ([7]; WT mice) was 137.5 %Δ from baseline and 110.5 %Δ from baseline and 107.4 %Δ from baseline and 126 %Δ from baseline and 95.3 %Δ from baseline and 92.7 %Δ from baseline and the “Influence of pretreatment on accumulation of vincristine in whole DRG samples” value [8] was “significantly diminished by nilotinib”. The Caudal nerve amplitude [9, 10] was 95.6% and 93.7% and 108.6% and 106% and 98.1%, the Caudal nerve velocity [9, 10] was 102.8% and 100.9% and 101.1% and 98% and 97.3% and the Sciatic nerve amplitude [9, 10] was 114.4% and 121.2% and 118.7% and 82.8% and 93.6% and 69.3%. The Sciatic nerve velocity [9, 10] was 95.7% and 106.4% and 97.8% and 107.3% and 98.7% and 94.1%, the Caudal nerve amplitude [9, 11] was 89.3% and 94% and 95.6% and 104.4% and 86.9% and the Caudal nerve velocity [9, 11] was 97.1% and 98.5% and 95% and 100.3% and 98.1% and 98.7%. For the same molecule, the Sciatic nerve velocity [9, 11] was 92.3% and 108.6% and 101.5% and 100.5% and 93.7% and 102.8%, the Sciatic nerve amplitude ([9]; WT mice, nilotinib 100 mg/kg p.o. 30 min before each vincristine 1 mg/kg, 4 weeks) was 108.6 %Δ from baseline and 88.8 %Δ from baseline and 77.9 %Δ from baseline and 89.5 %Δ from baseline and 98.8 %Δ from baseline and 89.1 %Δ from baseline and the Caudal nerve amplitude [9, 12] was 120.6% and 88.2% and 115.9% and 89.2% and 91.2% and 94.8%. For the same molecule, the Caudal nerve velocity [9, 12] was 98.2% and 90.4% and 108% and 104.2% and 102% and 97.3%, the Sciatic nerve amplitude [9, 12] was 97.8% and 93% and 117% and 84.6% and 113.5% and 94% and the Sciatic nerve velocity [9, 12] was 102.2% and 108.4% and 96.7% and 95.6% and 94.8%. The Caudal nerve amplitude [9, 13] was 63.6% and 79.9% and 91.5% and 110.8% and 56.5% and 79.7%, the Caudal nerve velocity [9, 13] was 92.7% and 93.3% and 98.1% and 103.4% and 110.3% and 95.5% and the Sciatic nerve amplitude [9, 13] was 89.1% and 108.6% and 88.8% and 77.9% and 89.5% and 98.8%. For the same molecule, the Sciatic nerve velocity [9, 13] was 101.8% and 112.7% and 95.6% and 97.9% and 93.4% and 98.9%.
